{
  "source": "paper PMC11123956",
  "about": "“Nobiletin Stimulates Adrenal Hormones and Modulates the Circadian Clock in Mice” (Nutrients, 2024)",
  "key": {"CRF in the hypothalamus": {"system": "CRF in the hypothalamus", "assay": "CRF in the hypothalamus ELISA", "assay_type": "in vivo, mice", "conditions": "an hour after injection (50 or 100 mg/kg)", "experimental": "Serum corticosterone, adrenaline, and adreno-corticotropic hormone (ACTH) levels, and corticotropin releasing factor (CRF) in the hypothalamus, were measured using enzyme-linked immunosorbent assay (ELISA). A corticosterone ELISA kit (Cayman Chemical Company, Ann Arbor, MI, USA), an adrenaline ELISA kit (Abcam, Cambridge, UK), an ACTH ELISA kit (Phoenix Pharmaceuticals Inc., Burlingame, CA, USA), and a CRF ELISA kit (Yanaihara Institute Inc., Shizuoka, Japan) were used. Assays were conducted according to the manufacturer’s instructions. Blood samples were collected from the mice at ZT4, 5, and 7 after the administration of nobiletin at ZT3 (10 mg/kg and 100 mg/kg, in Figure 3A,B). Blood glucose levels were measured using a Glucose PILOT kit (Aventir Biotech, LLC, Carlsbad, CA, USA). The range of blood glucose that could be precisely measured with the kit was 20–600 mg/dL. Before measurement, we administered nobiletin (100 mg/kg body weight) to the mice, after 4 h fasting. Blood was collected from the tail vein of each mouse for measurement. The measurements were conducted at 0, 15, 30, 45, 60, and 90 min after reagent administration in Figure 3C. Samples were collected one hour after nobiletin treatment (50 or 100 mg/kg; Figure 3D,E), or 2 or 4 h after treatment in Figure 3F. […]"}, "PDE6": {"biological_target": "T1, PDE6 (Bos taurus, UniProt P11541+P23439)", "T1 construct": "Bovine retinal rod outer segments; tissue Eurofins Panlabs Discovery Services Taiwan, Ltd. (contract assay); host or cells: bovine retinal rod outer segments", "T1 sequence (P11541 2-856 limits assumed)": "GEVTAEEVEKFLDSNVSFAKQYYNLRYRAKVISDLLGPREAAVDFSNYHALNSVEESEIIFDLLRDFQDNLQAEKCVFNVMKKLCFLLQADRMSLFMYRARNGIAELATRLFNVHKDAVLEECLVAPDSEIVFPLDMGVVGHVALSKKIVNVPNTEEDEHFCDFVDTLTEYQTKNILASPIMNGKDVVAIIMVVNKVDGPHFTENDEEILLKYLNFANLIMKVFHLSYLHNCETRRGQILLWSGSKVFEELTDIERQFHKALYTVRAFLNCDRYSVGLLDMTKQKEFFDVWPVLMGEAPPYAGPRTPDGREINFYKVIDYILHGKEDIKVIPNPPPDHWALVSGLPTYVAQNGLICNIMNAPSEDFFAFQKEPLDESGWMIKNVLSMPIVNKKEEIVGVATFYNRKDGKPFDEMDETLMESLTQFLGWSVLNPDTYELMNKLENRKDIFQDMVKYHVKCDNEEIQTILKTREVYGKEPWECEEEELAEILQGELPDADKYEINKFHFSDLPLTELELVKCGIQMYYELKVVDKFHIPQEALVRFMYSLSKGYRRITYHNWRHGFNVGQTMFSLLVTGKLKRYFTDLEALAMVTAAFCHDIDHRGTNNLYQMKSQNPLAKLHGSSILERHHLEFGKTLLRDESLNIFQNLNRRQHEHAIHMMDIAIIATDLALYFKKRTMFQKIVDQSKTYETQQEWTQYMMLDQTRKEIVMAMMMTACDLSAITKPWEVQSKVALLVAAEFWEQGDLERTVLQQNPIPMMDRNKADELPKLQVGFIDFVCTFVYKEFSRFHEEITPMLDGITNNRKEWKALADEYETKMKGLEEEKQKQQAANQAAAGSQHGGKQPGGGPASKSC", "T1 sequence (P23439 2-850 limits assumed)": "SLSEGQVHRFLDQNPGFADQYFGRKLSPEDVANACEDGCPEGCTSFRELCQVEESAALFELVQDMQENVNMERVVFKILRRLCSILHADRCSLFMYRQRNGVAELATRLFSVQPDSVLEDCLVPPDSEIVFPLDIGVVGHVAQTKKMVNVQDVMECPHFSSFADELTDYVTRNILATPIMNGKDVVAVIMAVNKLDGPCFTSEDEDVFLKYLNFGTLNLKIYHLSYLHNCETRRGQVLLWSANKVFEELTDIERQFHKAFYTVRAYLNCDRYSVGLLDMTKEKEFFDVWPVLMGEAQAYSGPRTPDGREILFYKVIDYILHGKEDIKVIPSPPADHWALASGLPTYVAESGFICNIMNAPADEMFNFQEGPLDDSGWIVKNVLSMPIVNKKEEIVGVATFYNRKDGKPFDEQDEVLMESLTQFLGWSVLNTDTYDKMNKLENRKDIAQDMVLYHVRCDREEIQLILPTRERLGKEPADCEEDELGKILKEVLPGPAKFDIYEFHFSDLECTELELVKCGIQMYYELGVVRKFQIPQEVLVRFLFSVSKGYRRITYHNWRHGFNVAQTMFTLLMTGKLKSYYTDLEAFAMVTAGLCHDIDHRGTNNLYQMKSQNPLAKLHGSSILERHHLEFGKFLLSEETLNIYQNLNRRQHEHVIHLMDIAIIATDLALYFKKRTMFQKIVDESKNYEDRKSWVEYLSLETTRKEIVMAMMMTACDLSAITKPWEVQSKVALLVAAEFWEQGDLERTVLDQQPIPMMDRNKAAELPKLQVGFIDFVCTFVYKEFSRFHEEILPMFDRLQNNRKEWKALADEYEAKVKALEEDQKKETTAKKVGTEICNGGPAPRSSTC", "assay": "PDE enzyme  assay, PDE6", "assay_type": "biochemical, Bovine", "experimental": "Enzyme assays for various subtypes of PDE (Table 1 and Figure 4) were conducted by Eurofins Panlabs Discovery Services Taiwan, Ltd. (New Taipei City, Taiwan). In the assays, five or six concentrations of nobiletin over five or six orders of magnitude were examined in experiments conducted in duplicate to determine the IC50 (concentration of nobiletin exerting half-maximal inhibition of control-specific activity). IC50 values were determined by nonlinear least squares regression analysis using MathIQTM (ID Business Solutions Ltd., Woking, UK). FAM-cAMP, FAM-cGMP (0.1 μM), and 100 μM [^3H]cGMP + cGMP were used for the substrate in the human recombinant insect Sf9 cells or Bovine retinal rod outer segments depending on the PDE subtype. The spectrofluorometric quantitation of fluorescein-AMP-IMAP, fluorescein-GMP-IMAP, or [^3H] guanosine was used depending on the PDE subtype. A known […] of each PDE was used as the positive control."}},
  "data": [
    {"molecule": "COc1ccc(-c2cc(=O)c3c(OC)c(OC)c(OC)c(OC)c3o2)cc1OC", "note": "[nobiletin]", "values": [
      {"measurement": "CRF in the hypothalamus", "setting": "CRF in the hypothalamus", "result": "did not change significantly"},
      {"measurement": "IC50", "setting": "PDE6", "result": 74.5, "unit": "µM"}
    ]}
  ]
}
